Values quoted from earlier work, collected in patent US20050118222A1, “Product to combat ticks and the process for the product's preparation” (priority 2002, published 2005).

Assays:
[1] = in vivo
[2] = test system: manure-processing insect and coleopterous flora in the soil

In the case of “(4″R)-4″-epi(Acetylamino)-4″-deoxyavermectin B1 [Eprinomectin]”, the “applied drug eliminated through the milk” value (in vivo) is given as 0.1%, the “elimination through the milk, times less compared to ivermectin or moxidectin” value (versus ivermectin or moxidectin) is given as 50 times and the elimination through dung [1] is given as 85%. For the same substance, the “effect on manure-processing insect and coleopterous flora in the soil” value [2] was “does not affect”.
